Measured values published in patent publication US20140038967A1, “NOVEL USE FOR IMIDAZOTRIAZINONES” (ALGIAX PHARMACEUTICALS GMBH, priority 2011, published 2014).

Tests used:
[1] = test system: severe spinal cord contusion injury; experiment: BBB open field locomotor rating scale after severe spinal cord contusion injury, oral treatment; type: in vivo, Lewis rats
Procedure: (§1) The BBB Open Field Locomotor Rating Scale: • The BBB locomotor rating scale was used to assess general locomotor performance (Basso et al., 1995). The score was assessed before injury and at 1, 3, 5, 7, 14, 21, 35, 42, 49, 56 and 63 days post operation (dpo) by 2 blinded observers.
Oral Treatment with a Imidazotriazinone after Severe Spinal Cord Contusion Injury in the Rat.
Thirteen week-old female Lewis rats (Charles River, Sulzfeld Germany) were housed under a 12:12 h dark/light regime and allowed free access to water and food. After one week of habituation the animals underwent general anesthesia with a mixture of isoflurane and air (induction: 5% isoflurane, maintenance: 2.2% isofluorane). A Th10 laminectomy was performed without rupturing the dura and a severe contusive SCI (25 gcm NYU/MASCIS II impactor) (Gruner, 1992) was induced. After suturing muscle and skin, a subcutaneous (s.c.) injection of 5 ml of Ringers Lactate was given. Bladders were emptied manually 2 times a day until spontaneous voiding returned (usually within 1 week). The lesion severity was verified by the impact velocity and contusion depth of the impactor rod. Animals with an impact velocity error >5% were excluded from further analysis. After injury, individual rats were randomly assigned into a treatment group. The following groups were used: […]

[2] = test system: severe spinal cord contusion injury; experiment: Explorative rearing test after severe spinal cord contusion injury, intrathecal treatment; type: in vivo, Lewis rats; details: intrathecal 100 μM over 14 days
Procedure: (§2) Thirteen week-old female Lewis rats (Charles River, Sulzfeld Germany) were housed under a 12:12 h dark/light regime and allowed free access to water and food. After one week of habituation the animals underwent general anesthesia with a mixture of isoflurane and air (induction: 5% isoflurane, maintenance: 2.2% isofluorane). A T8 laminectomy was performed without rupturing the dura and a severe contusive SCI (25 gcm NYU/MASCIS II impactor) {Gruner, 1992 #3} was induced. Thereafter, the surgery continued with the procedure to position the silicon tube intrathecal catheter (7740, Alzet). Firstly, the catheter was filled with either the active or the vehicle solution. Secondly, another laminectomy was performed, again without rupturing the dura, at T11. At this position a small incision was made into the dura and the catheter was inserted at thoracic level 11 and pushed forward under lamina of T10-T9 to the lesion site at T8. The catheter was then cut at the appropriate length and connected to a filled osmotic minipump (Alzet, model 2002) which was placed subcutaneously. The overlying tissue was sutured, and a subcutaneous (s.c.) injection of 5 ml of Ringers Lactate was given. The different solutions (active or vehicle) were infused at a flow rate of 0.5 μl/h over a time period of 14 days. […]
When placed in a Plexiglas cylinder (18 cm diameter×35.0 cm height), animals spontaneously rear and contact the walls with their forepaws. Numbers, duration and types of rears were analyzed during the 3-min recorded observation period in the cylinder (Himes et al., 2006; Shumsky et al., 2003). […] The testing session was videotaped, and rearing behaviour was scored blindly at a later date. […]
Occasionally an animal progressed through several types of rears before touching down, in which case the time the animal spend in each rearing height was measured by counting the single video frames. Data were expressed as number of attempts (rears), attempt duration and the time each animal spend in the different rearing heights.

[3] = test system: severe spinal cord contusion injury; experiment: BBB open field locomotor rating scale after severe spinal cord contusion injury, intrathecal treatment; type: in vivo, Lewis rats
Procedure: Intrathecal treatment with a imidazotriazinone after severe spinal cord contusion injury in the rat.
as §2, with “T8.” for “T8. The catheter was then cut at the appropriate length and connected to a filled osmotic minipump (Alzet, model 2002) which was placed subcutaneously. The overlying tissue was sutured, and a subcutaneous (s.c.) injection of 5 ml of Ringers Lactate was given. The different solutions (active or vehicle) were infused at a flow rate of 0.5 μl/h over a time period of 14 days.”
as §1

embryonic DRG explants = experiment: Axonal growth and Schwann cell expansion in embryonic DRG explants; type: cell-based, Wistar rat
Procedure: In vitro experiments with an imidazotriazinone to improve axonal growth and Schwann cell expansion in embryonic DRG explants of rats.
Outgrowth studies with 7-(4-tert-butylcyclohexyl)-5-ethyl-2-phenylimidazo[5,1-f][1,2,4]triazin-4(3H)-one or the vehicle were performed on embryonic neural tissue. DRGs of thoracic, lumbar, and sacral levels were prepared from Wistar rat embryos E18-20 and processed in ice cold 0.6% glucose in PBS. Harvested DRGs were freed from attaching nerve fibres, dissected, and transferred onto poly-D-lysine- and laminin-coated glass coverlips. To avoid cluster formation, a maximum of two DRG explants was transferred onto a single glass coverslip. Following an initial attachment phase, the pre-incubation medium was replaced by fully supplemented growth medium spiked with the test item (7-(4-tert-butylcyclohexyl)-5-ethyl-2-phenylimidazo[5,1-f][1,2,4]triazin-4(3H)-one groups 2 and 3) or vehicle (DMF, group 1) and incubated at 37° C./10% CO2 for additional 22 hours in vitro. Following 22 hours in vitro, the DRG explants were fluorescently labelled and axonal growth and Schwann cell expansion were quantitatively assessed.
The following experimental groups were included into the study: • Fully supplemented growth medium with 0.1% vehicle. • Fully supplemented growth medium with 0.1% vehicle and 7-(4-tert-butylcyclohexyl)-5-ethyl-2-phenylimidazo[5,1-f][1,2,4]triazin-4(3H)-one at a final concentration of 0.01 μM. • Fully supplemented growth medium with 0.1% vehicle and 7-(4-tert-butylcyclohexyl)-5-ethyl-2-phenylimidazo[5,1-f][1,2,4]triazin-4(3H)-one at a final concentration of 0.1 μM. • Fully supplemented growth medium with 0.1% vehicle and 7-(4-tert-butylcyclohexyl)-5-ethyl-2-phenylimidazo[5,1-f][1,2,4]triazin-4(3H)-one at a final concentration of 1 μM.

[4] = compared to vehicle control animals (FIG. 3)
[5] = tested 0.01, 0.1 and 1 μM, 22 hours in vitro

Compound: CCc1nc(C2CCC(C(C)(C)C)CC2)n2nc(-c3ccccc3)[nH]c(=O)c12 (stereo not drawn) [7-(4-tert-butylcyclohexyl)-5-ethyl-2-phenylimidazo[5,1-f][1,2,4]triazin-4(3H)-one]
- BBB score at steady state ([1]; 10 mg in vehicle, vehicle animals 7.8 (FIG. 4)): 9.0
- BBB score at the end of the experiment compared to vehicle controls ([1]; 10 mg, DPO 56, Students T-Test p=0.0012 (FIG. 5)): performed significantly better
- duration of rearing attempts [2, 4]: longer in time
- height reached by forepaws in rearing attempts [2, 4]: reached much higher
- types of rears performed ([2]; vehicle animals only crouch or rear): able to perform standing and even reaching
- BBB locomotor rating scale, treatment effect over the entire time-period of the assessment ([3]; intrathecal 100 μM, 0.5 μl/h over 14 days, ANOVA-RM p=0.013 vs vehicle (FIG. 2)): significant effect
- functional recovery after severe spinal cord contusion (overall, example 2) ([3]; intrathecal treatment, rat): significantly improves functional recovery
- Schwann cell numbers compared to vehicle-treated cultures (embryonic DRG explants; 0.01-1 μM, 22 hours in vitro): increased nearly fourfold
- Schwann cell expansion (numbers of Schwann cells outside the DRG explant core) (embryonic DRG explants; 0.01-1 μM, 22 hours in vitro (FIG. 1B)): significant increase
- growth area of outgrowing axons (embryonic DRG explants; 0.01-1 μM, 22 hours in vitro, compared to vehicle-treated cultures (FIG. 1A)): significant increase
- concentration at which Schwann cell numbers were highest (embryonic DRG explants; [5]): 0.1 µM
- concentration at which elevation of axonal growth areas was highest (embryonic DRG explants; [5]): 0.1 µM
